# Test results published in patent US10869931B2, “Polyethylene glycol-modified angiogenesis inhibitor HM-1 and application thereof” (NANJING ANJI BIOLOGICAL TECHNOLOGY CO.,LTD, priority 2016, dated 2020).
# Marks after values point to notes of the source that are not given here. Where no end group is shown, it is not given here.
# Assays:
# Brain tumor cells = assay: MTT proliferation inhibition, brain tumor cells; assay type: cell-based, human; set-up: concentration or dose not given beside the values; conditions: 48 h
# Description: (§1) The activity of mPEG-HM-1 to inhibit the growth of various tumor cells was examined by MTT assay. The tumor cells were cultured to a concentration of 90% or more in a 37° C., 5% CO2 incubator and collected by trypsinization. The cells were resuspended in the culture medium and counted under a microscope to adjust the cell concentration to 2×10^4 cells/mL, the cell suspension was inoculated into a 96-well plate at 100 μL/well and incubated overnight at 37° C. in a 5% CO2 incubator. mPEG-HM-1 was diluted with the culture solution to each predetermined concentration. Docetaxel is diluted to the final concentration with the culture medium. After the cells were fully attached, each dilution was added to a 96-well plate (100 μL/well). The mPEG-HM-1 dilution was added as a drug-administered group, and docetaxel was added as a positive control group, and a culture solution without any drug was used as a negative control group. Incubate for 48 h at 37° C. in a 5% CO2 incubator. 5 mg/mL of MTT was added to a 96-well plate at 20 μL per well, and incubation was continued for 4 hours. The medium was aspirated, dissolved in 150 μL of DMSO per well, and gently mixed by shaking for 10 min. The absorbance was measured at a measurement wavelength of 570 nm and a reference wavelength of 630 nm using a microplate reader, and the rate of growth inhibition (proliferation inhibition, PI) was calculated. The formula is as follows: PI (%)=1−administration group/negative group
# (§2) The test was repeated 3 times independently, and the results obtained by the test were expressed as mean±SD, and the test results are shown in Table 15 to Table 18.
# [1] = test system: Prostate cancer tumor cells; assay: MTT proliferation inhibition, prostate cancer cells; assay type: cell-based, human; set-up: concentration or dose not given beside the values; conditions: 48 h
# Description: as §1, §2
# [2] = test system: choroidal neovascularization in BN rats; assay: Laser-induced choroidal neovascularization in BN rats (FFA); assay type: in vivo, rat; conditions: 200 μg intravitreally once daily for 1 week (Table 53)
# Description: 6-8 weeks old male BN rats were anesthetized with 846 compound anesthetic 0.5 mL/kg administered intraperitoneally. The eye drops of compound tropamide eyes were used 5 minutes before laser photocoagulation, and the pupils of both eyes were fully scattered. Fix animals, with the aid of −53.00 D contact lens, around the optic disc and along the same distance from the optic disc 2PD, the laser beam photocoagulation were performed to make a total of 8 photo-condensation spots, with laser wavelength of 647.1 nm, power of 350 mW, photocoagulation spot diameter and time were 50 μm and 0.05 s, respectively. Immediately after photocoagulation, fundus photography was performed. FFA, histopathology and transmission electron microscopy were performed at 3, 7, 14, 21, and 28 days after photocoagulation.
# It was confirmed by fundus photography and FFA examination that the fluorescein leakage of photocoagulation peaked on the 21st day after photocoagulation, and histopathological examination was performed at the same time. […] A large number of neovascular vessels were seen, and red blood cells were visible in the lumen. Microscopically, capillary cells in the choroidal melanocytes were cohesively altered and endothelial cells aggregated.
# Rats that were successfully modeled were randomly divided into groups of 5 rats each. They were labeled as negative control group, mPEG-SC-HM-1 treatment group, mPEG2-NHS-HM-1 treatment group, mPEG-ALD-HM-1 treatment group and mPEG-bALD-HM-1 treatment group, respectively. Saline, mPEG-HM-1 (see Table 53 for dosing) was administered intravitreally, once daily for 1 week. FFA examinations were performed 3 days, 7 days, 14 days, and 28 days after administration of the modified peptides.
# [3] = test system: Kidney cancer tumor cells; assay: MTT proliferation inhibition, kidney cancer cells; assay type: cell-based, human; set-up: concentration or dose not given beside the values; conditions: 48 h
# Description: as §1, §2
# [4] = test system: Breast cancer tumor cells; assay: MTT proliferation inhibition, breast cancer cells; assay type: cell-based, human; set-up: concentration or dose not given beside the values; conditions: 48 h
# Description: as §1, §2
# [5] = test system: Head and neck cancer tumor cells; assay: MTT proliferation inhibition, head and neck cancer cells; assay type: cell-based, human; set-up: concentration or dose not given beside the values; conditions: 48 h
# Description: as §1, §2
# [6] = test system: xylene-induced ear swelling in Kunming mice; assay: Xylene-induced ear swelling in mice; assay type: in vivo, mouse; conditions: for Swelling: 2 h after xylene; for Inhibition rate: ear swelling vs control
# Description: Kunming mice were used. The saline group was used as the blank control group, the aspirin group (200 mg/kg) as the positive control group, and the mPEG-HM-1 administration group as the experimental group. Mice were administered once daily for 5 consecutive days. The blank control group was given an equal volume of physiological saline. One hour after the last administration, 0.05 mL of xylene was applied to both sides of the right ear of the mice to cause inflammation, and the left ear was not coated as normal ears. After 2 h, the mice were sacrificed by dislocation, and the ears were cut along the auricle. Ear pieces were taken with a puncher, weighed, and the swelling degree and swelling rate were calculated. Swelling degree=right ear piece weight-left ear piece weight, swelling rate=(swelling degree/left ear piece weight)×100%. Statistical t-test was performed on the test results, *P<0.05 was a significant difference, and **P<0.01 was a very significant difference. See Table 31 to Table 34 for the results.
# mouse spleen lymphocytes = assay: ConA-stimulated mouse spleen lymphocyte proliferation (MTT); assay type: cell-based; conditions: ConA 5 μg/mL, 48 h
# Description: Tris-NH4Cl was used to break the red blood cells, and the cells were allowed to stand in an ice water bath for 4 min, centrifuged (1000 rpm×5 min), the supernatant was discarded, and the cells were washed twice with sterile PBS. Finally, cells were suspended in RPMI 1640 medium (5 mL) supplemented with 10% calf serum, counted, adjusted to a cell concentration of 5×10^6/mL, and cultured in a 96-well culture plate The test group consisted of blank control group, concanavalin A (ConA) group, dexamethasone (Dex) group (0.02 mg/mL) and mPEG-HM-1 group. […] The cells were cultured in a 37° C. cell culture chamber for 48 h. After the completion of the culture, 20 μL of MTT was added to each well, and the culture was continued for 4 h. Finally, all the solutions in each well were discarded, 100 μL of DMSO was added to each well, and the mixture was shaken and detected by a microplate reader OD value at 570 nm, 5 parallels per hole.
# [7] = test system: Ovarian cancer tumor cells; assay: MTT proliferation inhibition, ovarian cancer cells; assay type: cell-based, human; set-up: concentration or dose not given beside the values; conditions: 48 h
# Description: as §1, §2
# [8] = Day 3 after administration, total spots 290-296 by table
# [9] = Day 7, total spots 182-188 by table
# [10] = Day 14, total spots 132-138 by table
# [11] = Day 28, total spots 67-71 by table
# [12] = 160 mg/kg once daily for 5 days
Substance,rate of growth inhibition (Brain tumor cells),rate of growth inhibition [1],CNV Incidence rate ([2]; Day 3 after administration),"leakage Spots # [2, 8]",CNV Incidence rate ([2]; Day 7),"leakage Spots # [2, 9]",CNV Incidence rate ([2]; Day 14),"leakage Spots # [2, 10]",CNV Incidence rate ([2]; Day 28),"leakage Spots # [2, 11]",rate of growth inhibition [3],rate of growth inhibition [4],rate of growth inhibition [5],Swelling ([6]; 40 mg/kg once daily for 5 days),Inhibition rate ([6]; 40 mg/kg once daily for 5 days),Swelling ([6]; 80 mg/kg once daily for 5 days),Inhibition rate ([6]; 80 mg/kg once daily for 5 days),"Swelling [6, 12]","Inhibition rate [6, 12]",A570 nm/A630 nm (mouse spleen lymphocytes; 40 μg/mL),also measured
mPEG-bALD40k-Arg-Gly-Ala-Asp-Arg-Ala-Gly-Gly-Gly-Gly-Arg-Gly-Asp ({mPEG‑bALD 40 kDa}-RGADRAGGGGRGD) [mPEG-bALD40k-HM-1],51.89 ± 11.91%,40.82 ± 11.75%,52.22%,153,50.81%,94,47.10%,65,42.03%,29,60.06 ± 18.88%,62.45 ± 19.04%,40.09 ± 12.02%,5.25 ± 0.12 mg,13.45%,4.68 ± 0.72* mg,22.94%,4.06 ± 0.26** mg,33.09%,0.6191 ± 0.0986,Inhibition Rate of spleen lymphocyte proliferation (mouse spleen lymphocytes; 40 μg/mL): 10.77%; A570 nm/A630 nm (mouse spleen lymphocytes; 80 μg/mL): 0.5089 ± 0.1230; Inhibition Rate of spleen lymphocyte proliferation (mouse spleen lymphocytes; 80 μg/mL): 26.65%; A570 nm/A630 nm (mouse spleen lymphocytes; 160 μg/mL): 0.4848 ± 0.1146; Inhibition Rate of spleen lymphocyte proliferation (mouse spleen lymphocytes; 160 μg/mL): 30.12%; rate of growth inhibition [7]: 72.66 ± 19.03%
mPEG-ALD40k-Arg-Gly-Ala-Asp-Arg-Ala-Gly-Gly-Gly-Gly-Arg-Gly-Asp ({mPEG‑ALD 40 kDa}-RGADRAGGGGRGD) [mPEG-ALD40k-HM-1],50.69 ± 14.41%,42.91 ± 11.65%,52.41%,152,50.55%,92,46.97%,62,42.25%,30,68.46 ± 20.98%,60.17 ± 19.24%,42.18 ± 10.01%,5.41 ± 0.16 mg,11.53%,4.77 ± 0.62* mg,22.02%,4.16 ± 0.25** mg,32.09%,0.6176 ± 0.0998,Inhibition Rate of spleen lymphocyte proliferation (mouse spleen lymphocytes; 40 μg/mL): 10.09%; A570 nm/A630 nm (mouse spleen lymphocytes; 80 μg/mL): 0.5040 ± 0.1239; Inhibition Rate of spleen lymphocyte proliferation (mouse spleen lymphocytes; 80 μg/mL): 26.63%; A570 nm/A630 nm (mouse spleen lymphocytes; 160 μg/mL): 0.4770 ± 0.1057; Inhibition Rate of spleen lymphocyte proliferation (mouse spleen lymphocytes; 160 μg/mL): 30.56%; rate of growth inhibition [7]: 74.61 ± 20.09%
mPEG2-NHS40k-Arg-Gly-Ala-Asp-Arg-Ala-Gly-Gly-Gly-Gly-Arg-Gly-Asp ({mPEG2‑NHS 40 kDa}-RGADRAGGGGRGD) [mPEG2-NHS40k-HM-1],42.56 ± 11.38%,45.91 ± 11.74%,51.02%,150,51.10%,93,44.53%,61,41.18%,28,58.73 ± 14.31%,49.12 ± 16.19%,40.36 ± 10.53%,5.47 ± 0.12 mg,11.52%,4.83 ± 0.67* mg,21.88%,4.19 ± 0.34** mg,32.26%,0.6191 ± 0.0984,Inhibition Rate of spleen lymphocyte proliferation (mouse spleen lymphocytes; 40 μg/mL): 10.59%; A570 nm/A630 nm (mouse spleen lymphocytes; 80 μg/mL): 0.4985 ± 0.1248; Inhibition Rate of spleen lymphocyte proliferation (mouse spleen lymphocytes; 80 μg/mL): 28.01%; A570 nm/A630 nm (mouse spleen lymphocytes; 160 μg/mL): 0.4827 ± 0.1136; Inhibition Rate of spleen lymphocyte proliferation (mouse spleen lymphocytes; 160 μg/mL): 30.28%; rate of growth inhibition [7]: 61.59 ± 13.61%
